These are literature values, as cited in article PMC4393105, “tRNA^Glu Increases the Affinity of Glutamyl-tRNA Synthetase for Its Inhibitor Glutamyl-Sulfamoyl-Adenosine, an Analogue of the Aminoacylation Reaction Intermediate Glutamyl-AMP: Mechanistic and Evolutionary Implications” (PLoS ONE, 2015).

Like-named read-outs stand apart in the source and are kept apart here.

For one data set, the target named is PheRS from baker’s yeast. Particulars: read-out: K d aa-AMP aaRS, cited from earlier work.
Another data set deals with IleRS from E. coli. Details: method as in earlier work. As to conditions: reviewed by Fersht, 1998, 48; cited from earlier work.
For data set [1], the target named is ThrRS from yeast mitochodria. Also on record: method as in PMID 22773845. Particulars: read-out: K d aa-AMP aaRS; cited from earlier work.

Take `Nc1ncnc2c1ncn2[C@@H]1O[C@H](COP(=O)(O)OC(=O)[C@@H](N)Cc2ccc(O)cc2)[C@@H](O)[C@H]1O` [Tyr-AMP, tyrosyl-AMP]: the Kd at PheRS from baker’s yeast (non-cognate aa-AMP) is 1000 nM.

Consider `CC(C)[C@H](N)C(=O)OP(=O)(O)OC[C@H]1O[C@@H](n2cnc3c(N)ncnc32)[C@H](O)[C@@H]1O` [Val-AMP, valyl-adenylate], for which the “fold weaker affinity than Ile-AMP” value in the data set with IleRS from E. coli is given as “This IleRS binds Val-AMP with a 150-fold weaker affinity than Ile-AMP”.

`C[C@@H](O)[C@H](N)C(=O)NS(=O)(=O)OC[C@@H]1O[C@H](n2cnc3c(N)ncnc32)[C@@H](O)[C@H]1O` [Thr-AMS, Threonyl-sulfamoyl-adenosine]: in data set [1], the Kd is 4.5 nM.

For the compound `Nc1ncnc2c1ncn2C1OC(COS(=O)(=O)NC(=O)[C@@H](N)CO)[C@@H](O)[C@H]1O` (some centres unmarked) [Ser-AMS, Seryl-sulfamoyl-adenosine], in data set [1], the Kd is 450 nM.

In the case of `Nc1ncnc2c1ncn2[C@@H]1O[C@H](COP(=O)(O)OC(=O)[C@@H](N)Cc2ccccc2)[C@@H](O)[C@H]1O` [Phe-AMP], the Kd on PheRS from baker’s yeast (cognate aa-AMP) is 5 nM.
